Test results from the PolyMetriX glass transition set.

SMILES | glass transition temperature [°C]
*C(=O)Oc1ccc(C(C)(C)c2ccc(OC(=O)c3ccc4c(c3)C(=O)N(c3ccc(O)c(N5C(=O)c6ccc(*)cc6C5=O)c3)C4=O)cc2)cc1 (repeat unit) | 225.00
*C(=O)Oc1ccc(C(C)(C)c2ccc(OC(=O)c3ccc4c(c3)C(=O)N(c3cccc(N5C(=O)c6ccc(*)cc6C5=O)c3)C4=O)cc2)cc1 (repeat unit) | 225.00
*C(=O)c1ccc2c(c1)C(=O)N(c1cccc(OP(=O)(Oc3cccc(N4C(=O)c5ccc(*)cc5C4=O)c3)c3ccccc3)c1)C2=O (repeat unit) | 176.50
*C(=O)c1ccc2c(c1)C(=O)N(c1cccc(P(=O)(c3cccc(N4C(=O)c5ccc(*)cc5C4=O)c3)c3cc(C(F)(F)F)cc(C(F)(F)F)c3)c1)C2=O (repeat unit) | 243.00
*CC(COc1ccc(C(C)(C)c2ccc(O*)cc2)cc1)OC(=O)c1ccccc1Cl (repeat unit) | 66.00
*CC(O)CN(CC(O)COc1ccc(C(C)(C)c2ccc(O*)cc2)cc1)c1ccc(C#N)cc1 (repeat unit) | 100.00
*CC(O)CN(Cc1ccccc1)CC(O)COc1ccc(C(C)(C)c2ccc(O*)cc2)cc1 (repeat unit) | 94.2
*CC(O)COC(=O)C1CCC(C(=O)OCC(O)COc2ccc(C(C)(C)c3ccc(O*)cc3)cc2)CC1 (repeat unit) | 70.00
*CC(O)COC(=O)CCCCC(=O)OCC(O)COc1ccc(C(C)(C)c2ccc(O*)cc2)cc1 (repeat unit) | 34.00
*CC(O)COc1ccc(C(C)(C)c2ccc(O*)cc2)cc1 (repeat unit) | 91.00
*CC(O)COc1ccc(C(C)(C)c2ccc(OCC(O)COc3ccc(C4(c5ccc(O*)cc5)c5ccccc5-c5ccccc54)cc3)cc2)cc1 (repeat unit) | 161.00
*CC(O)COc1ccc(C(C)(C)c2ccc(OCC(O)COc3ccc(NC(=O)CCCCCC(=O)Nc4ccc(O*)cc4)cc3)cc2)cc1 (repeat unit) | 116.00
*CC(O)COc1ccc(C(C)(C)c2ccc(OCC(O)COc3ccc(S(=O)(=O)c4ccc(O*)c(C)c4)cc3C)cc2)cc1 (repeat unit) | 117.50
*CC(O)COc1ccc(C(C)(C)c2ccc(OCC(O)COc3cccc(C(=O)Nc4cccc(O*)c4)c3)cc2)cc1 (repeat unit) | 117.00
*CC(O)COc1ccc(C(C)(C)c2ccc(OCC(O)COc3cccc(NC(=O)CCCCC(=O)Nc4cccc(O*)c4)c3)cc2)cc1 (repeat unit) | 103.00
*CC(O)COc1ccc(C(C)(C)c2ccc(OCC(O)COc3cccc(NC(=O)CCCCCC(=O)Nc4cccc(O*)c4)c3)cc2)cc1 (repeat unit) | 107.00
*CC(O)COc1ccc(C(C)(CC)c2ccc(O*)cc2)cc1 (repeat unit) | 95.00
*CC(O)COc1ccc(S(=O)(=O)c2ccc(OCC(O)COc3ccc(S(=O)(=O)c4ccc(O*)c(C)c4)cc3C)cc2)cc1 (repeat unit) | 142.50
*CCCCCCCCOc1ccc(C(c2ccc(O*)cc2)(C(F)(F)F)C(F)(F)F)cc1 (repeat unit) | 27.80
*CCCOCCCCOCCCN1C(=O)c2ccc(C(=O)Oc3ccc(C(C)(C)c4ccc(OC(=O)c5ccc6c(c5)C(=O)N(*)C6=O)cc4)cc3)cc2C1=O (repeat unit) | 60.00

SMILES | glass transition temperature [°C]
*O[Si](C)(C)OC(CCl)COc1ccc(C(C)(C)c2ccc(OCC(*)CCl)cc2)cc1 (repeat unit) | 24.00
*Oc1ccc(-c2ccc(OC(*)(Oc3ccccc3)Oc3ccccc3)c(C)c2)cc1C (repeat unit) | 125.00
*Oc1ccc(C(C)(C)c2ccc(OC(*)=O)c(Cl)c2)cc1 (repeat unit) | 146.00
*Oc1ccc(C(C)(C)c2ccc(OC(*)=O)c(Cl)c2)cc1Cl (repeat unit) | 147.00
*Oc1ccc(C(C)(C)c2ccc(OC(=O)Oc3ccc(Cc4ccc(OC(*)=O)cc4)cc3)cc2)cc1 (repeat unit) | 107.80
*Oc1ccc(C(C)(C)c2ccc(OC(=O)SCCCSC(*)=O)cc2)cc1 (repeat unit) | 90.00
*Oc1ccc(C(C)(C)c2ccc(OC(=O)Sc3ccc(C(C)(C)c4ccc(SC(*)=O)cc4)cc3)cc2)cc1 (repeat unit) | 154.00
*Oc1ccc(C(C)(C)c2ccc(OC(=O)c3ccc(C(*)=O)cc3)c(C(C)C)c2)cc1C(C)C (repeat unit) | 140.00
*Oc1ccc(C(C)(C)c2ccc(OC(=O)c3ccc(C(*)=O)cc3)c(C)c2)cc1C (repeat unit) | 178.50
*Oc1ccc(C(C)(C)c2ccc(OC(=O)c3ccc(C(*)=O)cc3)c(CCCC)c2)cc1CCCC (repeat unit) | 160.00
*Oc1ccc(C(C)(C)c2ccc(OC(=O)c3ccc(C(*)=O)cc3)c(Cl)c2)cc1Cl (repeat unit) | 190.00
*Oc1ccc(C(C)(C)c2ccc(OC(=O)c3ccc(C(C)(C)c4ccc(C(*)=O)cc4)cc3)cc2)cc1 (repeat unit) | 230.00
*Oc1ccc(C(C)(C)c2ccc(OC(=O)c3ccc(Cc4ccc(C(*)=O)cc4)cc3)cc2)cc1 (repeat unit) | 205.00
*Oc1ccc(C(C)(C)c2ccc(OC(=O)c3ccc(OCCCCCCCCCCOc4ccc(C(*)=O)cc4)cc3)cc2)cc1 (repeat unit) | 77.00
*Oc1ccc(C(C)(C)c2ccc(OC(=O)c3ccc(Oc4ccc(C(*)=O)cc4)cc3)cc2)cc1 (repeat unit) | 220.00
*Oc1ccc(C(C)(CC(C)C)c2ccc(OC(*)=S)cc2)cc1 (repeat unit) | 128.00
*Oc1ccc(C(C)(CC)c2ccc(OC(*)=O)c(C)c2)cc1C (repeat unit) | 119.00
*Oc1ccc(C(C)(CC)c2ccc(OC(*)=O)cc2)cc1 (repeat unit) | 136.00
*Oc1ccc(C(C)(CC)c2ccc(OC(*)=S)cc2)cc1 (repeat unit) | 102.00
*Oc1ccc(C(C)(CCC#N)c2ccc(OC(*)=O)c(C)c2)cc1C (repeat unit) | 117.00

SMILES | glass transition temperature [°C]
*Oc1ccc(C(CC)(CC)c2ccc(OC(=O)c3ccc(C(*)=O)cc3)cc2)cc1 (repeat unit) | 180.00
*Oc1ccc(C(CC)(c2ccccc2)c2ccc(OC(*)=O)cc2)cc1 (repeat unit) | 147.00
*Oc1ccc(C(CCC)c2ccc(OC(*)=S)cc2)cc1 (repeat unit) | 130.00
*Oc1ccc(C(c2ccc(OC(*)=O)cc2)C2C3CCC(C3)C2C)cc1 (repeat unit) | 232.00
*Oc1ccc(C2(c3ccc(OC(*)=O)cc3)CC(C)CC(C)(C)C2)cc1 (repeat unit) | 235.50
*Oc1ccc(C2(c3ccc(OC(*)=O)cc3)c3cc(OC)ccc3-c3ccc([N+](=O)[O-])cc32)cc1 (repeat unit) | 294.00
*Oc1ccc(C2(c3ccc(OC(=O)c4cccc(C(*)=O)c4)c(C)c3)c3ccccc3-c3ccccc32)cc1C (repeat unit) | 287.00
*Oc1ccc(S(=O)(=O)c2ccc(OC3(F)C(*)(F)C(F)(F)C3(F)F)cc2)cc1 (repeat unit) | 162.20
*c1cc(C(c2ccc(OCCN(C)c3ccc(/C=C/C4=CC(=C(/C#N)C(=O)OCCc5ccccc5)/CC(C)(C)C4)cc3)c(N3C(=O)c4ccc(Oc5ccc6c(c5)C(=O)N(*)C6=O)cc4C3=O)c2)(C(F)(F)F)C(F)(F)F)ccc1OCCN(c1ccccc1)c1ccc(/C=C/C2=CC(=C(/C#N)C(=O)OCCc3ccccc3)/CC(C)(C)C2)cc1 (repeat unit) | 177.00
*c1cc(C(c2ccc(OCCN(C)c3ccc(/C=C/C4=CC(=C(/C#N)S(C)(=O)=O)/CC(C)(C)C4)cc3)c(N3C(=O)c4ccc(Oc5ccc6c(c5)C(=O)N(*)C6=O)cc4C3=O)c2)(C(F)(F)F)C(F)(F)F)ccc1OCCN(C)c1ccc(/C=C/C2=CC(=C(/C#N)S(C)(=O)=O)/CC(C)(C)C2)cc1 (repeat unit) | 225.00
*c1cc(C(c2ccc(OCCN(c3ccccc3)c3ccc(/C=C/C4=CC(=C(/C#N)S(C)(=O)=O)/CC(C)(C)C4)cc3)c(N3C(=O)c4ccc(Oc5ccc6c(c5)C(=O)N(*)C6=O)cc4C3=O)c2)(C(F)(F)F)C(F)(F)F)ccc1OCCN(c1ccccc1)c1ccc(/C=C/C2=CC(=C(/C#N)S(C)(=O)=O)/CC(C)(C)C2)cc1 (repeat unit) | 234.00
*c1ccc(Cc2ccc(N3C(=O)C(Cl)=C(Oc4ccc(C(C)(C)c5ccc(OC6=C(Cl)C(=O)N(*)C6=O)cc5)cc4)C3=O)cc2)cc1 (repeat unit) | 172.00
*c1ccc(OC(=O)c2cccc(C(=O)Oc3ccc(C4(*)NC(=O)c5ccccc54)cc3)c2)cc1 (repeat unit) | 325.00
*c1ccc(OC(=O)c2cccc(C(=O)Oc3ccc(C4(*)c5ccccc5C(=O)N4C)cc3)c2)cc1 (repeat unit) | 285.00
*c1ccc(OCCCCCCN(CC)c2ccc(C(C#N)=C(C#N)C#N)cc2)c(-c2cc(-c3ccccc3)c3cc(Oc4ccc5nc(*)cc(-c6ccccc6)c5c4)ccc3n2)c1 (repeat unit) | 175.00
*c1ccc(Oc2ccc(N3C(=O)C(Cl)=C(Oc4ccc(C(C)(C)c5ccc(OC6=C(Cl)C(=O)N(*)C6=O)cc5)cc4)C3=O)cc2)cc1 (repeat unit) | 175.00
*c1ccc2c(c1)C(=O)N(c1cc(N3C(=O)c4ccc(C(*)(C(F)(F)F)C(F)(F)F)cc4C3=O)ccc1OCCCCCCOc1ccc(-c3ccc(OCC)cc3)cc1)C2=O (repeat unit) | 150.30
*c1ccc2c(c1)C(=O)N(c1cc(N3C(=O)c4ccc(C(*)(C(F)(F)F)C(F)(F)F)cc4C3=O)ccc1OCCCCCCOc1ccc(/N=N/c3ccc(OCC)cc3)cc1)C2=O (repeat unit) | 198.00
*c1cccc(P(=O)(c2ccccc2)c2cccc(N3C(=O)c4ccc(NC(=O)OCCOc5ccc(C(C)(C)c6ccc(OCCOC(=O)Nc7ccc8c(c7)C(=O)N(*)C8=O)cc6)cc5)cc4C3=O)c2)c1 (repeat unit) | 220.00
